Like-named read-outs stand apart in the source and are kept apart here.
Legend:
[1] = system: S. aureus; test: MIC, CLSI broth microdilution in CAMHB with 0-10% pulmonary surfactant (avibactam fixed at 4 μg/mL in combination); format: cell-based, Staphylococcus aureus
Method: (§1) The bacterial strains used in this testing were part of the microbiological culture collection housed at AstraZeneca R&D Boston (AstraZeneca Research Collection, designated ARC). The panel of bacterial isolates used for this testing was comprised of five CLSI QC reference strains and the remainder were either recent clinical isolates expressing β-lactamases or isolates from the primary bacterial screening panels.
(§2) MIC values were determined using the CLSI broth microdilution methodology with slight variation. Stock compound mother plates were prepared and used to spot 2 μL aliquots of serial 2-fold drug dilutions to columns 1-11 of 96-well daughter plates using a Perkin-Elmer MiniTrak™ MultiPosition dispenser. […] An inoculum volume of 100 μL (5×10E^5 CFU/mL) in CAMHB containing 0, 1, 2.5, 5, or 10% pulmonary surfactant was added using a multichannel Finnpipette® to each well of the 96-well plate.
(§3) The minimum inhibitory concentration (MIC) values against each organism/drug combination were determined using broth microdilution methodology according to CLSI guidelines. The recommended reference bacterial strains for each test group and reference compounds were incorporated into each test. For Gram-negatives, the reference bacterial strains were Escherichia coli ATCC 25922, E. coli ATCC 35218, Klebsiella pneumoniae ATCC 700603, and Pseudomonas aeruginosa ATCC 27853. Staphylococcus aureus ATCC 29213 was the reference bacterial strain for the Gram-positives.
(§4) MIC values for individual isolates were read visually. The MICs for each compound or combination in pulmonary surfactant was compared to the compound or combination tested in CAMHB alone.

[2] = system: P. aeruginosa; test: as above; format: cell-based, Pseudomonas aeruginosa
Method: as §1, §2, §3, §4

[3] = system: Gram-positive or Gram-negative bacterial strains; test: MIC in pulmonary surfactant compared with CAMHB alone, whole strain panel; format: cell-based; conditions: up to 10% pulmonary surfactant vs CAMHB alone; any strain tested
Method: as §1, §2
The minimum inhibitory concentration (MIC) values against each organism/drug combination were determined using broth microdilution methodology according to CLSI guidelines. The recommended reference bacterial strains for each test group and reference compounds were incorporated into each test. […]
MIC values for individual isolates were read visually. […]

[4] = Serum and epithelial lining fluid (ELF) pharmacokinetics of ceftazidime-avibactam human simulated regimen in infected and uninfected mice; conditions: for fT > MIC: MIC 4, human simulated CAZ-AVI 2000-500 mg q8h 2 h infusion; for Kp at 16 h / Kp at 18.5 h / Kp at 22 h / Kp at 24 h: female, ICR, mouse, epithelial lining fluid (ELF) vs serum, ELF point Penetration Ratio, ELF vs serum, third dosing interval
Method: Pathogen-free, female ICR mice weighing approximately 25 g were acquired from Harlan Sprague Dawley, Inc. (Indianapolis, Ind.) and utilized throughout these experiments. Animals were maintained and used in accordance to National Research Council recommendations, and provided food and water ad libitum. Mice were rendered neutropenic with 100 and 250 mg/kg intraperitoneal injections of cyclophosphamide (Cytoxan®; Bristol-Myers Squibb, Princeton, N.J.) given one and four days prior to inoculation, respectively. Three days prior to inoculation, mice were also given a single 5 mg/kg intraperitoneal injection of uranyl nitrate. This produces a predictable degree of renal impairment to slow drug clearance. Two hours prior to the initiation of antimicrobial therapy, mice were lightly anesthetized using isofluorane (2.5% v/v in 100% oxygen carrier) until the respiratory rate decreased upon visual inspection. Pneumonia was induced by the instillation of 0.05 mL of a 10^7 CFU inoculum of the test isolate suspended in 3% mucin in normal saline. While the mouse is anesthetized, the inoculum is delivered into the animal's oral cavity, blocking the nares and holding the mouse in a vertical position. Aspiration of bacteria into the lungs occurred as the animals began to spontaneously respire.
In these studies, we utilized the previously determined dosing regimen described above. Confirmatory serum pharmacokinetic studies were undertaken in infected mice. For these studies, infected neutropenic mice were dosed with the above calculated regimen and groups of six mice ? were euthanized at multiple time points throughout a 24 h period to confirm target exposures blood was collected via cardiac puncture and the serum samples were stored at −80° C. until analysis. Pharmacokinetic studies were undertaken to describe the epithelial lining fluid concentrations in infected mice. For these studies, infected neutropenic mice were dosed with the above calculated regimen and groups of six mice were euthanized at multiple time points throughout the third dosing period (i.e. 16-24 h). Once euthanized, serum and BAL samples were collected as described above. Serum and BAL samples were stored at −80° C. until analysis.

[5] = Protein binding, equilibrium dialysis chamber, LC-MS/MS; format: in vitro ADME
Method: Blood was separated from plasma using a cooled centrifuge. Samples were split and stored at −80° C.

NC(=O)[C@@H]1CC[C@@H]2CN1C(=O)N2OS(=O)(=O)[O-].[Na+] [avibactam, [(2S,5R)-2-carbamoyl-7-oxo-1,6-diazabicyclo[3.2.1]octan-6-yl]hydrogen sulfate]
MIC ([1]; S. aureus ARC12 (CLSI QC strain, ATCC 29213), surfactant 0%): >64 µg/mL
MIC ([1]; S. aureus ARC12 (CLSI QC strain, ATCC 29213), surfactant 1%): >64 µg/mL
MIC ([1]; S. aureus ARC12 (CLSI QC strain, ATCC 29213), surfactant 2.5%): >64 µg/mL
MIC ([1]; S. aureus ARC12 (CLSI QC strain, ATCC 29213), surfactant 5%): >64 µg/mL
MIC ([1]; S. aureus ARC12 (CLSI QC strain, ATCC 29213), surfactant 10%): >64 µg/mL
MIC ([1]; S. aureus ARC516 (MRSA, quinolone-resistant), surfactant 0%): >64 µg/mL
MIC ([1]; S. aureus ARC516 (MRSA, quinolone-resistant), surfactant 1%): >64 µg/mL
MIC ([1]; S. aureus ARC516 (MRSA, quinolone-resistant), surfactant 2.5%): >64 µg/mL
MIC ([1]; S. aureus ARC516 (MRSA, quinolone-resistant), surfactant 5%): >64 µg/mL
MIC ([1]; S. aureus ARC516 (MRSA, quinolone-resistant), surfactant 10%): >64 µg/mL
MIC ([2]; P. aeruginosa ARC3 (CLSI QC strain, ATCC 27853), surfactant 1%): >64 µg/mL
MIC ([2]; P. aeruginosa ARC3 (CLSI QC strain, ATCC 27853), surfactant 2.5%): >64 µg/mL
MIC ([2]; P. aeruginosa ARC3 (CLSI QC strain, ATCC 27853), surfactant 5%): >64 µg/mL
MIC ([2]; P. aeruginosa ARC3 (CLSI QC strain, ATCC 27853), surfactant 10%): >64 µg/mL
MIC ([2]; P. aeruginosa ARC545 (PAO1), surfactant 1%): >64 µg/mL
MIC ([2]; P. aeruginosa ARC545 (PAO1), surfactant 2.5%): >64 µg/mL
MIC ([2]; P. aeruginosa ARC545 (PAO1), surfactant 5%): >64 µg/mL
MIC ([2]; P. aeruginosa ARC545 (PAO1), surfactant 10%): >64 µg/mL
MIC ([2]; P. aeruginosa ARC2532 (Clinical isolate), surfactant 0%): >64 µg/mL
MIC ([2]; P. aeruginosa ARC2532 (Clinical isolate), surfactant 1%): >64 µg/mL
MIC ([2]; P. aeruginosa ARC2532 (Clinical isolate), surfactant 2.5%): >64 µg/mL
MIC ([2]; P. aeruginosa ARC2532 (Clinical isolate), surfactant 5%): >64 µg/mL
MIC ([2]; P. aeruginosa ARC2532 (Clinical isolate), surfactant 10%): >64 µg/mL
MIC ([2]; P. aeruginosa ARC2761 (Clinical isolate), surfactant 1%): >64 µg/mL
MIC ([2]; P. aeruginosa ARC2761 (Clinical isolate), surfactant 2.5%): >64 µg/mL
MIC ([2]; P. aeruginosa ARC2761 (Clinical isolate), surfactant 5%): >64 µg/mL
MIC ([2]; P. aeruginosa ARC2761 (Clinical isolate), surfactant 10%): >64 µg/mL
MIC ([2]; P. aeruginosa ARC3508 (derepressed AmpC), surfactant 0%): >64 µg/mL
MIC ([2]; P. aeruginosa ARC3508 (derepressed AmpC), surfactant 1%): >64 µg/mL
MIC ([2]; P. aeruginosa ARC3508 (derepressed AmpC), surfactant 2.5%): >64 µg/mL
MIC ([2]; P. aeruginosa ARC3508 (derepressed AmpC), surfactant 5%): >64 µg/mL
MIC ([2]; P. aeruginosa ARC3508 (derepressed AmpC), surfactant 10%): >64 µg/mL
MIC ([2]; Pseudomonas aeruginosa, ATCC27853, P. aeruginosa ARC3 (CLSI QC strain, ATCC 27853), surfactant 0%, read-out: MIC): > 64 µg/mL
MIC ([2]; Pseudomonas aeruginosa, P. aeruginosa ARC545 (PAO1), surfactant 0%, read-out: MIC): > 64 µg/mL
MIC ([2]; Pseudomonas aeruginosa, P. aeruginosa ARC2761 (Clinical isolate), surfactant 0%, read-out: MIC): > 64 µg/mL
MIC increase in pulmonary surfactant [3]: no MIC increases were observed
fT > MIC ([4]; ELF, infected mice): 3%
fT > MIC ([4]; ELF, uninfected mice): 19%
fT > MIC ([4]; Serum, infected mice): 34%
fT > MIC ([4]; Serum, uninfected mice): 19%
Kp at 16 h ([4]; infected mice): 0.59
Kp at 18.5 h ([4]; infected mice): 0.66
Kp at 22 h ([4]; infected mice): 0.69
Kp at 24 h ([4]; infected mice): 0.8
Kp at 16 h ([4]; uninfected mice): 0.86
Kp at 18.5 h ([4]; uninfected mice): 0.74
Kp at 22 h ([4]; uninfected mice): 0.93
Kp at 24 h ([4]; uninfected mice): 0.95
fraction unbound [5]: 0.92

Source: patent US20150374673A1, “Combination Therapy for the Treatment of Nosocomial Pneumonia” (priority 2013, published 2015)
